Results as given in PubChem BioAssay AID328 (DTP/NCI, 2004).
Where “and” joins values, the source holds several entries; their conditions need not be identical. Identical values can stand only once. Inconclusive results and toxic doses are left out. Positions of bridges follow the written chain, without caps; N, C: chain ends. Non-standard residues stand in square brackets, D forms with d. Residues, ends and D or L forms follow the SMILES beside them. Pip(4-oxo) = O=C1CCN[CH](C(=O)O)C1; NMeV = CN[CH](C(=O)O)C(C)C; Sar = CNCC(=O)O

Tested on: BDF1 mice, P388 leukemia ip, median survival T/C
Assay: NCI In Vivo Anticancer Drug Screen. Data for tumor model P388 Leukemia (intraperitoneal) in B6D2F1 (BDF1) mice
Conditions: endpoint: median survival time, higher = longer survival
In short: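 Vehicle-dosed animals serve as the reference; survival of compound-dosed, tumour-implanted mice is divided by it.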

[1] = dose: 100.0 mg/kg/injection, schedule: Q01DX009 (ip), vehicle: saline with Tween-80
[2] = dose: 200.0 mg/kg/injection, schedule: Q01DX009 (ip), vehicle: saline with Tween-80
[3] = dose: 3.12 mg/kg/injection, schedule: Q01DX009 (ip), vehicle: saline
[4] = dose: 6.25 mg/kg/injection, schedule: Q01DX009 (ip), vehicle: saline
[5] = dose: 12.5 mg/kg/injection, schedule: Q01DX009 (ip), vehicle: saline
[6] = dose: 25.0 mg/kg/injection, schedule: Q01DX009 (ip), vehicle: saline
[7] = dose: 25.0 mg/kg/injection, schedule: Q04DX003 (ip), vehicle: saline
[8] = dose: 50.0 mg/kg/injection, schedule: Q01DX009 (ip), vehicle: saline
[9] = dose: 50.0 mg/kg/injection, schedule: Q04DX003 (ip), vehicle: saline
[10] = dose: 100.0 mg/kg/injection, schedule: Q01DX009 (ip), vehicle: saline
[11] = dose: 100.0 mg/kg/injection, schedule: Q04DX003 (ip), vehicle: saline
[12] = dose: 200.0 mg/kg/injection, schedule: Q04DX003 (ip), vehicle: saline
[13] = dose: 400.0 mg/kg/injection, schedule: Q04DX003 (ip), vehicle: saline
[14] = dose: 100.0 mg/kg/injection, schedule: Q01DX009 (ip), vehicle: Klucel (hydroxypropylcellulose) (HPC)
[15] = dose: 200.0 mg/kg/injection, schedule: Q01DX009 (ip), vehicle: Klucel (hydroxypropylcellulose) (HPC)
[16] = dose: 400.0 mg/kg/injection, schedule: Q01DX009 (ip), vehicle: Klucel (hydroxypropylcellulose) (HPC)
[17] = dose: 200.0 mg/kg/injection, schedule: Q01DX009 (ip), vehicle: saline
[18] = dose: 100.0 mg/kg/injection, schedule: Q04DX003 (ip), vehicle: saline with Tween-80
[19] = dose: 200.0 mg/kg/injection, schedule: Q04DX003 (ip), vehicle: saline with Tween-80
[20] = dose: 400.0 mg/kg/injection, schedule: Q04DX003 (ip), vehicle: saline with Tween-80

`C=CCc1ccc(OCCOC(=O)Nc2cccc(SC)c2)c(OC)c1` was tested, and the T/C (dose: 12.5 mg/kg/injection, schedule: Q01DX009 (ip), vehicle: DMSO) was 90 % of control, the T/C (dose: 25.0 mg/kg/injection, schedule: Q01DX009 (ip), vehicle: DMSO) was 107 % of control and the T/C (dose: 50.0 mg/kg/injection, schedule: Q01DX009 (ip), vehicle: DMSO) was 93 % of control.

`COc1cc2c(cc1C(C)C)CCC1C(C)(C#N)CCCC21C` (stereo unspecified) was tested, and the T/C [1] was 110 % of control, the T/C [2] was 110 % of control and the T/C (dose: 400.0 mg/kg/injection, schedule: Q01DX009 (ip), vehicle: saline with Tween-80) was 95 % of control.

With `COc1ccc2[nH]c(=O)c(C)c(C)c2c1` the T/C [3] was 98 % of control, the T/C [4] was 94 % of control and the T/C [5] was 94 % of control. The T/C [6] was 92 % of control, the T/C [7] was 107 % of control and the T/C [8] was 96 % of control and 117 % of control. The T/C [9] was 118 % of control, the T/C [10] was 94 % of control and the T/C [11] was 111 % of control. The T/C [12] was 100 % of control and the T/C [13] was 115 % of control.

With `FC(F)(F)/C([S-])=C(/[S-])C(F)(F)F.FC(F)(F)/C([S-])=C(/[S-])C(F)(F)F.FC(F)(F)/C([S-])=C(/[S-])C(F)(F)F.FC(F)(F)/C([S-])=C(/[S-])C(F)(F)F.[Fe+3].[Fe+3]` the T/C (dose: 50.0 mg/kg/injection, schedule: Q01DX001 (ip), vehicle: saline with Tween-80) was 100 % of control, the T/C (dose: 100.0 mg/kg/injection, schedule: Q01DX001 (ip), vehicle: saline with Tween-80) was 104 % of control and the T/C (dose: 200.0 mg/kg/injection, schedule: Q01DX001 (ip), vehicle: saline with Tween-80) was 104 % of control.

With `CC(C)(C)CC(=O)OCCC[N+](C)(C)[O-]` the T/C (dose: 100.0 mg/kg/injection, schedule: Q01DX005 (ip), vehicle: water) was 100 % of control and the T/C (dose: 200.0 mg/kg/injection, schedule: Q01DX005 (ip), vehicle: water) was 100 % of control.

In the case of `CCOC(=O)CNC(=O)N(CC)C12CC3CC(CC(C3)C1)C2`, the T/C [14] is reported as 94 % of control, the T/C (dose: 130.0 mg/kg/injection, schedule: Q01DX009 (ip), vehicle: Klucel (hydroxypropylcellulose) (HPC)) is reported as 111 % of control and the T/C [15] is reported as 100 % of control. For the same molecule, the T/C (dose: 300.0 mg/kg/injection, schedule: Q01DX009 (ip), vehicle: Klucel (hydroxypropylcellulose) (HPC)) was 109 % of control and the T/C [16] was 122 % of control.

`CNC/C(C)=C/Br` was tested, and the T/C (dose: 12.5 mg/kg/injection, schedule: Q01DX009 (ip), vehicle: acetone) was 100 % of control, the T/C (dose: 18.75 mg/kg/injection, schedule: Q04DX003 (ip), vehicle: saline) was 100 % of control and the T/C (dose: 25.0 mg/kg/injection, schedule: Q01DX009 (ip), vehicle: acetone) was 104 % of control. For the same molecule, the T/C (dose: 37.5 mg/kg/injection, schedule: Q04DX003 (ip), vehicle: saline) was 104 % of control, the T/C (dose: 50.0 mg/kg/injection, schedule: Q01DX009 (ip), vehicle: acetone) was 104 % of control and the T/C [8] was 100 % of control. The T/C (dose: 63.75 mg/kg/injection, schedule: Q01DX001 (ip), vehicle: saline) was 100 % of control, the T/C (dose: 75.0 mg/kg/injection, schedule: Q01DX009 (ip), vehicle: saline) was 95 % of control and the T/C (dose: 75.0 mg/kg/injection, schedule: Q04DX003 (ip), vehicle: saline) was 95 % of control. For the same molecule, the T/C [10] was 115 % of control, the T/C (dose: 110.0 mg/kg/injection, schedule: Q04DX003 (ip), vehicle: saline) was 110 % of control and the T/C (dose: 127.5 mg/kg/injection, schedule: Q01DX001 (ip), vehicle: saline) was 100 % of control. The T/C (dose: 170.0 mg/kg/injection, schedule: Q04DX003 (ip), vehicle: saline) was 110 % of control, the T/C [17] was 105 % of control and the T/C (dose: 255.0 mg/kg/injection, schedule: Q04DX003 (ip), vehicle: saline) was 105 % of control.

In the case of `C=CCOc1c(C)cc(C(C)(C)c2cc(C)c(OCC=C)c(C)c2)cc1C`, the T/C (dose: 25.0 mg/kg/injection, schedule: Q01DX001 (ip), vehicle: other) is reported as 104 % of control, the T/C (dose: 50.0 mg/kg/injection, schedule: Q01DX001 (ip), vehicle: other) is reported as 109 % of control and the T/C (dose: 100.0 mg/kg/injection, schedule: Q01DX001 (ip), vehicle: other) is reported as 95 % of control.

With `c1ccc(CN2CCCCC2)nc1` the T/C (dose: 5.0 mg/kg/injection, schedule: Q01DX009 (ip), vehicle: Klucel (hydroxypropylcellulose) (HPC)) was 105 % of control, the T/C (dose: 5.0 mg/kg/injection, schedule: Q04DX003 (ip), vehicle: Klucel (hydroxypropylcellulose) (HPC)) was 104 % of control and the T/C (dose: 10.0 mg/kg/injection, schedule: Q01DX009 (ip), vehicle: Klucel (hydroxypropylcellulose) (HPC)) was 100 % of control. The T/C (dose: 10.0 mg/kg/injection, schedule: Q04DX003 (ip), vehicle: Klucel (hydroxypropylcellulose) (HPC)) was 100 % of control, the T/C (dose: 20.0 mg/kg/injection, schedule: Q01DX009 (ip), vehicle: Klucel (hydroxypropylcellulose) (HPC)) was 105 % of control and the T/C (dose: 20.0 mg/kg/injection, schedule: Q04DX003 (ip), vehicle: Klucel (hydroxypropylcellulose) (HPC)) was 100 % of control.

For `CCN(CC)P1(=S)OCC(C)O1` (stereo unspecified), the T/C [18] was 92 % of control, the T/C [19] was 100 % of control and the T/C [20] was 111 % of control.

With `O=C1CCc2c(Br)cccc21` the T/C [18] was 110 % of control, the T/C [19] was 115 % of control and the T/C [20] was 110 % of control.

With `Cc1ccccc1C1(c2ccccc2C)OC(=O)c2ccccc21` the T/C [14] was 90 % of control, the T/C (dose: 100.0 mg/kg/injection, schedule: Q04DX003 (ip), vehicle: Klucel (hydroxypropylcellulose) (HPC)) was 95 % of control and the T/C [15] was 104 % of control. For the same molecule, the T/C (dose: 200.0 mg/kg/injection, schedule: Q04DX003 (ip), vehicle: Klucel (hydroxypropylcellulose) (HPC)) was 91 % of control, the T/C [16] was 90 % of control and the T/C (dose: 400.0 mg/kg/injection, schedule: Q04DX003 (ip), vehicle: Klucel (hydroxypropylcellulose) (HPC)) was 87 % of control.

With `CC(=O)Oc1ccc(OC(C)=O)c2c1CC1(C)OC1(C)C2` (stereo unspecified) the T/C (dose: 1.56 mg/kg/injection, schedule: Q01DX009 (ip), vehicle: saline) was 96 % of control, the T/C [3] was 96 % of control and the T/C [4] was 99 % of control. The T/C [5] was 88 % of control, the T/C [6] was 88 % of control and the T/C [7] was 96 % of control. The T/C [8] was 97 % of control and 109 % of control, the T/C [9] was 107 % of control and the T/C [10] was 96 % of control. The T/C [11] was 87 % of control, the T/C [17] was 94 % of control and the T/C [12] was 103 % of control. The T/C (dose: 400.0 mg/kg/injection, schedule: Q01DX009 (ip), vehicle: saline) was 90 % of control and the T/C [13] was 100 % of control.

`CC/C(=C\c1cccc([N+](=O)[O-])c1)C(=O)O` was tested, and the T/C [14] was 100 % of control, the T/C [15] was 100 % of control and the T/C [16] was 109 % of control.

With `CC(C)C1NC(=O)C(N)C(C)OC(=O)C(C(C)C)N(C)C(=O)CN(C)C(=O)C2CC(=O)CCN2C1=O` (stereo unspecified) (tested in a mixture with another compound) (H-TV[Pip(4-oxo)][Sar][NMeV]; ester 1-C; configuration not given here) the T/C (dose: 50.0 micrograms/kg/injection, schedule: Q01DX009 (ip), vehicle: saline + alcohol) was 168 % of control, the T/C (dose: 75.0 micrograms/kg/injection, schedule: Q01DX009 (ip), vehicle: saline + alcohol) was 203 % of control and the T/C (dose: 100.0 micrograms/kg/injection, schedule: Q01DX009 (ip), vehicle: saline + alcohol) was 192 % of control. For the same molecule, the T/C (dose: 150.0 micrograms/kg/injection, schedule: Q01DX009 (ip), vehicle: saline + alcohol) was 230 % of control.

With `CC(=O)CSc1ncnc2nc[nH]c12` the T/C [1] was 109 % of control and the T/C [2] was 109 % of control.
